# Experiments:
# Assay type in all cases: in vivo, Sprague-Dawley rats
# RIPK1 = target: T1, RIPK1 (Rattus norvegicus, UniProt D3ZYL0); test: Rodent ACLF model (BDL+LPS rats): RIPK1 immunostaining of liver tissue; details: 3.3 mg/kg Nec-1 i.p. 3 hr before LPS, vs BDL+Vehicle+LPS, p=0.009
# T1 construct: Representative images of liver tissue of sham, BDL, BDL+LPS and BDL+NEC-1+LPS stained for RIPK1; from tissue; host or cells: rat liver (BDL+LPS ACLF model)
# T1 sequence (D3ZYL0 1-658): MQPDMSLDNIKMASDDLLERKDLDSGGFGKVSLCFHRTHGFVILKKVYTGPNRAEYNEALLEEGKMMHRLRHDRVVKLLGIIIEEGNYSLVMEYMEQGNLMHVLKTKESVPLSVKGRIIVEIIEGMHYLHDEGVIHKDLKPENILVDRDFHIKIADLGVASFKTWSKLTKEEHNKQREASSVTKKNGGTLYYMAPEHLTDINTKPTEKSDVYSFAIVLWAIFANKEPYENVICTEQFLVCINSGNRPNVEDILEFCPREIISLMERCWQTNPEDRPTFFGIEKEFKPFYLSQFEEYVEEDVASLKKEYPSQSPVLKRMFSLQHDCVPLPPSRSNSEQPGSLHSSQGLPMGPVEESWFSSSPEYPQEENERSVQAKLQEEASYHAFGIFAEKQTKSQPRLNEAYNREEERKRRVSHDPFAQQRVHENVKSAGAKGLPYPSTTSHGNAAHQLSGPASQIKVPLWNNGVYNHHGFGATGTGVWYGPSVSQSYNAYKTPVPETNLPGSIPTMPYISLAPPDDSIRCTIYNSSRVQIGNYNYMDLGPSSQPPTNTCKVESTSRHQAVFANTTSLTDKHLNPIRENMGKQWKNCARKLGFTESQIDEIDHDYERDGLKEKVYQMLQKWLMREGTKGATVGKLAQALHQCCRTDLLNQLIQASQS
# Experimental: (§1) The animal model of ACLF utilised in this study was developed using a well-characterized rodent model of advanced fibrosis induced by bile duct ligation (BDL) with ACLF induced in this model by infusion of LPS. Bile duct ligation, housing, and care of the animals were performed as previously described. Four groups of adult male Sprague-Dawley rats were studied (n=4-8 in each group). The animals were studied 4 weeks after either sham-operation or BDL. The animals in each group were terminated 3-h after administration of LPS (Klebsiella pneumoniae) (0.3 mg/kg/hr, intravenously) or saline under terminal anaesthesia.
# (§2) Necrostatin 1 (Nec-1, Calbiochem, Sigma Aldrich, UK) was prepared as follows. Nec-1 was redissolved in N-2 methyl-pyrrolidone (NMP) to make a 200 mg/ml stock solution which was then further diluted to an intermediate concentration of 40 mg/ml in NMP. […]
# (§3) Terminal deoxynucleotidyl transferase biotin-dUTP nick end labeling (TUNEL) staining of deparaffinised and proteinase K-treated liver and kidney sections was performed using the In-Situ Cell Death Detection kit, POD (Roche, UK) as per manufacturer's protocol. […] Quantitative analysis of immunohistochemistry positive area was assessed by measuring optical density using FIJI Image J software.
# [1] = test system: liver and kidney sections; test: Rodent ACLF model (BDL+LPS rats): TUNEL staining of liver and kidney sections (cell death)
# Experimental: as §1, §2, §3
# RIPK3 = test: Rodent ACLF model (BDL+LPS rats): plasma RIPK3 by ELISA; details: BDL+NEC-1+LPS vs BDL+Vehicle+LPS
# Experimental: as §1, §2
# Blood was withdrawn from the carotid line and immediately placed in heparin or EDTA-containing tubes (until full exsanguination), centrifuged (3,500 rpm for 10 min at 4° C.) and the plasma was stored at −80° C. for later use in biochemistry and RIPK3 quantification [Rat RIPK3 (Receptor-interacting serine/threonineprotein kinase) ELISA kit, Cat. No. ER0446, Wuhan Fine Biological Technology Co., Ltd., China]. […]
# [2] = Rodent ACLF model (BDL+LPS rats): plasma biochemistry, histone 3 and brain water
# Experimental: as §1
# Necrostatin 1 (Nec-1, Calbiochem, Sigma Aldrich, UK) was prepared as follows. Nec-1 was redissolved in N-2 methyl-pyrrolidone (NMP) to make a 200 mg/ml stock solution which was then further diluted to an intermediate concentration of 40 mg/ml in NMP. The 40 mg/ml solution was finally diluted to a working concentration of 1 mg/ml in a solution of 30% (2-hydroxypropyl) β-cyclodextrin (Sigma, Cat No H107)/0.5% Citric acid.
# (§4) 4. BDL animals administered LPS and Nec-1; This group of BDL rats received an i.p. injection of 3.3 mg/kg Nec-1 followed, by an i.p injection of LPS, 3 hr later.
# Animals were sacrificed 3 hours after LPS.
# Blood was withdrawn from the carotid line and immediately placed in heparin or EDTA-containing tubes (until full exsanguination), centrifuged (3,500 rpm for 10 min at 4° C.) and the plasma was stored at −80° C. for later use in biochemistry and RIPK3 quantification [Rat RIPK3 (Receptor-interacting serine/threonineprotein kinase) ELISA kit, Cat. No. ER0446, Wuhan Fine Biological Technology Co., Ltd., China]. Organs were harvested and either fixed in formalin for histological assessment or snap frozen.
# Caspase 3/7 = test: Liver Caspase 3/7 activity (Caspase-Glo) in rodent ACLF model; details: BDL+NEC-1+LPS group; IQR 1640-3890; p=0.626 compared to BDL
# Experimental: as §1, §4
# (§5) Liver Caspase 3/7 and 8 activities were measured using Caspase-Glo assay kits (Promega). Briefly, cytosolic extracts from liver tissue were obtained by homogenisation in hypotonic extraction buffer [10 mM HEPES, 0.5% Triton X-100, 2 mM DTT, protease inhibitor cocktail (Sigma)] using a TissueLyser LT sytem (Qiagen, UK). […] After quantification using BCA™ Protein Assay Kit (Pierce, UK), protein concentrations of supernatant were adjusted to 1 mg/ml with extraction buffer and stored at −80° C. […] Luminescence was measured using a plate-reading luminometer (FLUOstar Omega, BMG Labtech, UK).
# Caspase 8 = test: Liver Caspase 8 activity (Caspase-Glo) in rodent ACLF model; details: BDL+NEC-1+LPS group; IQR 313.5-414.3; p=0.020 compared to BDL
# Experimental: as §1, §4, §5
structure (smiles),measurement,setting,value
"CN1C(=O)C(Cc2c[nH]c3ccccc23)NC1=S (stereo not drawn) [NEC-1, Necrostatin 1]",expression of RIPK1 in liver (immunostaining optical density),RIPK1,significantly decreased
same,total cell death in the livers (TUNEL staining),"[1]; BDL+NEC-1+LPS vs BDL+Vehicle+LPS, p=0.001",significant reduction in total cell death
same,cell death in kidneys (TUNEL staining),"[1]; BDL+NEC-1+LPS vs BDL+vehicle+LPS, p=0.002",significant reduction in cell death
same,plasma RIPK3 levels,RIPK3,reduced markedly
same,plasma urea levels,"[2]; BDL+NEC-1+LPS vs BDL+Vehicle+LPS, p=0.012",significant reduction
same,plasma albumin levels,"[2]; BDL+NEC-1+LPS vs BDL+Vehicle+LPS, p=0.017",significantly higher
same,plasma creatinine,"[2]; BDL+NEC-1+LPS vs BDL+Vehicle+LPS, p=0.020",significant reduction
same,plasma AST,"[2]; BDL+NEC-1+LPS vs BDL+Vehicle+LPS, p=0.037",significantly lower
same,brain water content,"[2]; BDL+NEC-1+LPS vs BDL+Vehicle+LPS, p=0.100","reduction in brain water content, although not statistically significant"
same,circulating levels of histone 3,"[2]; NEC-1 treated group vs BDL+Vehicle+LPS, p=0.048",significant reduction in circulating levels of histone 3
same,"Caspase 3/7 activity in liver homogenates, median",Caspase 3/7,2857 RLU
same,"Caspase 8 activity in liver homogenates, median",Caspase 8,326.5 RLU

# Reference: patent US11714087B2, “Treatment of necroptosis” (priority 2018, dated 2023)
